Assay results taken from publication PMC11401861, “Assessment of the in vitro anti-diabetic activity with molecular dynamic simulations of limonoids isolated from Adalia lemon peels” (Scientific Reports, 2024).
≈ marks a conversion by molar mass, not a printed value.

Assays:
α-amylase [1] = assay: Native electrophoretic α-amylase isoenzyme pattern (PAGE); type: biochemical; conditions: standard enzyme treated with 100 µg/mL
Procedure: (§1) The relative mobility (Rf), band quantity (Qty) and band percent (B%) of the electrophoretically detected isoenzyme types on the PAGE plate were determined using the Quantity One software program (version 4.6.2). The equation proposed by Nei and Li[39] was used to calculate the percentages of similarity index (SI%) and physiological difference (Diff%).

α-glucosidase [2] = assay: SDS-PAGE electrophoretic α-glucosidase pattern; type: biochemical; conditions: 100 µg/mL
Procedure: as §1

α-amylase [3] = assay: α-Amylase enzyme inhibition assay; type: biochemical; conditions: for IC50 against α-amylase: Fig. 2b
Procedure: (§2) All in vitro biological activities of the limonoids-rich extract and the isolated compounds were assayed in triplicate at three different concentrations (50, 100, and 200 µg/mL).
(§3) The IC50 of each tested sample was determined by plotting a curve using a series of sample concentrations against the percent of enzyme inhibition.

α-glucosidase [4] = assay: α-Glucosidase enzyme inhibition assay; type: biochemical; conditions: for IC50 against α-glucosidase: Fig. 2b
Procedure: as §2, §3

[5] = Iron reducing power (IRP), method of Oyaizu
[6] = ABTS radical scavenging assay; conditions: for IC50 against ABTS radical: Fig. 2a
Procedure: as §2
(§4) The ABTS scavenging capacities of the samples were compared with that of ascorbic acid. The percent inhibition of the ABTS radical was calculated. The IC50 of each tested sample was determined by plotting a curve using a series of sample concentrations against the percent of ABTS inhibition.

[7] = Nitric oxide (NO) radical scavenging activity (Griess Illosvory reagent); conditions: for IC50 against NO radical: Fig. 2a
Procedure: as §2
as §4, with “The nitric oxide (NO) radical scavenging activity was estimated by the reaction with Griess Illosvory reagent based on the method proposed by Chakraborthy[34]. The NO” for “The ABTS”, “the NO” for “the ABTS”, “of NO” for “of ABTS”

[8] = DPPH radical scavenging activity; conditions: for IC50 against DPPH radical: Fig. 2a
Procedure: as §2
The 1,1-Diphenyl-2-picryl-hydrazyl (DPPH) radical scavenging activity was evaluated using the method described by Rahman et al.[32]. Ascorbic acid was used as a positive control at the same concentrations. The inhibition percentage of the DPPH free radical was calculated. The median inhibitory concentration (IC50) of each tested sample was determined by plotting a curve using a series of sample concentrations against the percentage of DPPH inhibition.

[9] = Total antioxidant capacity (TAC), method of Prieto et al.
Procedure: as §2
The method proposed by Prieto et al.[30] was used to determine the total antioxidant capacity (TAC) expressed as mg […] equivalent per gram weight, using ascorbic acid at the same concentrations as a standard.

| Compound | Change in electrophoretic α-amylase isoenzyme pattern (α-amylase [1]) | α-Amylase Inhibition (%) (α-amylase [3]; sample concentration 50 µg/mL) | α-Amylase Inhibition (%) (α-amylase [3]; sample concentration 100 µg/mL) | α-Amylase Inhibition (%) (α-amylase [3]; sample concentration 200 µg/mL) | α-Glucosidase Inhibition (%) (α-glucosidase [4]; sample concentration 50 µg/mL) | α-Glucosidase Inhibition (%) (α-glucosidase [4]; sample concentration 100 µg/mL) | α-Glucosidase Inhibition (%) (α-glucosidase [4]; sample concentration 200 µg/mL) | IRP ([5]; sample concentration 50 µg/mL) [µg/mL] | IRP ([5]; sample concentration 100 µg/mL) [µg/mL] | IRP ([5]; sample concentration 200 µg/mL) [µg/mL] | ABTS Inhibition (%) ([6]; sample concentration 50 µg/mL) | ABTS Inhibition (%) ([6]; sample concentration 100 µg/mL) | ABTS Inhibition (%) ([6]; sample concentration 200 µg/mL) | NO Inhibition (%) ([7]; sample concentration 50 µg/mL) | NO Inhibition (%) ([7]; sample concentration 100 µg/mL) | NO Inhibition (%) ([7]; sample concentration 200 µg/mL) | DPPH Inhibition (%) ([8]; sample concentration 50 µg/mL) | DPPH Inhibition (%) ([8]; sample concentration 100 µg/mL) | DPPH Inhibition (%) ([8]; sample concentration 200 µg/mL) | TAC ([9]; sample concentration 50 µg/mL) [mg gallic acid/g] | other results |
| --- | --- | --- | --- | --- | --- | --- | --- | --- | --- | --- | --- | --- | --- | --- | --- | --- | --- | --- | --- | --- | --- |
| C[C@H]1O[C@H](O[C@H]2[C@H](O)[C@@H](O)[C@@H](O[C@H]3[C@H](O)[C@@H](O)C(O)O[C@@H]3CO)O[C@@H]2CO)[C@H](O)[C@@H](O)[C@@H]1N[C@H]1C=C(CO)[C@@H](O)[C@H](O)[C@H]1O (some centres unmarked) [Acarbose, acarbose, reference compound] | complete denaturation | 21.84 ± 0.08 | 37.12 ± 0.13 | 66.07 ± 0.23 | 17.69 ± 0.08 | 29.73 ± 0.13 | 52.92 ± 0.23 | – | – | – | – | – | – | – | – | – | – | – | – | – | Change in electrophoretic α-glucosidase pattern (α-glucosidase [2]): complete denaturation |
| O=C1O[C@H]([C@@H](O)CO)C(O)=C1O [Ascorbic Acid, ascorbic acid, reference compound] | – | – | – | – | – | – | – | 23.95 ± 0.07 | 42.64 ± 0.13 | 75.90 ± 0.23 | 24.94 ± 0.08 | 42.64 ± 0.13 | 75.90 ± 0.23 | 21.02 ± 0.07 | 36.27 ± 0.11 | 64.55 ± 0.20 | 26.17 ± 0.07 | 45.43 ± 0.11 | 80.87 ± 0.20 | 30.09 ± 0.08 | IC50 against ABTS radical [6]: 4.17 ± 0.02 µg/mL (≈ 23.7 µM); IC50 against NO radical [7]: 5.17 ± 0.03 µg/mL (≈ 29.4 µM); IC50 against DPPH radical [8]: 4.74 ± 0.02 µg/mL (≈ 26.9 µM); TAC ([9]; sample concentration 100 µg/mL): 53.56 ± 0.14 mg gallic acid/g; TAC ([9]; sample concentration 200 µg/mL): 95.34 ± 0.25 mg gallic acid/g |
| CC1(C)O[C@H]2CC(=O)OC[C@]23[C@H]2CC[C@@]4(C)[C@H](c5ccoc5)OC(=O)[C@H]5O[C@]54[C@]2(C)C(=O)C[C@@H]13 [Cpd1, limonin] | no qualitative or quantitative variations | 4.52 ± 0.03 | 8.05 ± 0.04 | 14.32 ± 0.08 | 1.37 ± 0.03 | 2.44 ± 0.04 | 4.34 ± 0.08 | 7.62 ± 0.03 | 13.56 ± 0.04 | 24.14 ± 0.08 | 7.62 ± 0.03 | 13.56 ± 0.04 | 24.14 ± 0.08 | 5.95 ± 0.02 | 10.60 ± 0.04 | 18.87 ± 0.07 | 11.10 ± 0.02 | 19.77 ± 0.04 | 35.18 ± 0.07 | 12.77 ± 0.03 | Diff% (physiological difference) of electrophoretic α-amylase pattern from the standard enzyme (α-amylase [1]): 0.00%; SI% (similarity index) of electrophoretic α-amylase pattern to the standard enzyme (α-amylase [1]): 100.00%; Diff% (decrease in the quantity of the identified α-glucosidase band) (α-glucosidase [2]): 3.83%; Qty (band quantity) of the α-glucosidase band (α-glucosidase [2]): 17.95; TAC ([9]; sample concentration 100 µg/mL): 22.73 ± 0.04 mg gallic acid/g; TAC ([9]; sample concentration 200 µg/mL): 40.46 ± 0.08 mg gallic acid/g |
| CC(=O)O[C@H]1CC(=O)OC(C)(C)[C@@H]2CC(=O)[C@]3(C)[C@H](CC[C@@]4(C)[C@H](c5ccoc5)OC(=O)[C@H]5O[C@]543)[C@@]12C [Cpd3, nomilin] | no qualitative or quantitative variations | 4.65 ± 0.03 | 8.27 ± 0.05 | 14.73 ± 0.08 | 1.50 ± 0.03 | 2.67 ± 0.05 | 4.75 ± 0.08 | 7.75 ± 0.03 | 13.79 ± 0.05 | 24.55 ± 0.08 | 7.75 ± 0.03 | 13.79 ± 0.05 | 24.55 ± 0.08 | 6.07 ± 0.02 | 10.80 ± 0.04 | 19.22 ± 0.07 | 11.22 ± 0.02 | 19.96 ± 0.04 | 35.53 ± 0.07 | 12.90 ± 0.03 | Diff% (physiological difference) of electrophoretic α-amylase pattern from the standard enzyme (α-amylase [1]): 0.00%; SI% (similarity index) of electrophoretic α-amylase pattern to the standard enzyme (α-amylase [1]): 100.00%; Diff% (decrease in the quantity of the identified α-glucosidase band) (α-glucosidase [2]): 7.51%; Qty (band quantity) of the α-glucosidase band (α-glucosidase [2]): 17.26; TAC ([9]; sample concentration 100 µg/mL): 22.96 ± 0.05 mg gallic acid/g; TAC ([9]; sample concentration 200 µg/mL): 40.87 ± 0.08 mg gallic acid/g |
| CC1(C)OC(=O)C=C[C@]2(C)[C@H]3CC[C@@](C)([C@@H](O[C@@H]4O[C@H](CO)[C@@H](O)[C@H](O)[C@H]4O)c4ccoc4)[C@@]4(O[C@@H]4C(=O)O)[C@]3(C)C(=O)C[C@@H]12 [Cpd4, obacunone 17-O-β-D-glucopyranoside] | severe abnormalities | 18.93 ± 0.07 | 33.69 ± 0.13 | 59.96 ± 0.23 | 14.78 ± 0.07 | 26.30 ± 0.13 | 46.81 ± 0.23 | 22.03 ± 0.07 | 39.20 ± 0.13 | 69.78 ± 0.23 | 22.03 ± 0.07 | 39.20 ± 0.13 | 69.78 ± 0.23 | 18.48 ± 0.06 | 32.90 ± 0.11 | 58.55 ± 0.20 | 23.63 ± 0.06 | 42.06 ± 0.11 | 74.87 ± 0.20 | 27.18 ± 0.07 | Diff% (physiological difference) of electrophoretic α-amylase pattern from the standard enzyme (α-amylase [1]): 100.00%; SI% (similarity index) of electrophoretic α-amylase pattern to the standard enzyme (α-amylase [1]): 0.00%; Diff% (decrease in the quantity of the identified α-glucosidase band) (α-glucosidase [2]): 64.41%; Qty (band quantity) of the α-glucosidase band (α-glucosidase [2]): 6.64; IC50 against ABTS radical [6]: 4.53 ± 0.02 µg/mL (≈ 7.14 µM); IC50 against NO radical [7]: 5.70 ± 0.03 µg/mL (≈ 8.98 µM); IC50 against DPPH radical [8]: 5.12 ± 0.02 µg/mL (≈ 8.07 µM); IC50 against α-amylase (α-amylase [3]): 3.61 ± 0.02 µg/mL (≈ 5.69 µM); TAC ([9]; sample concentration 100 µg/mL): 48.37 ± 0.13 mg gallic acid/g; TAC ([9]; sample concentration 200 µg/mL): 86.10 ± 0.23 mg gallic acid/g; IC50 against α-glucosidase (α-glucosidase [4]): 2.46 ± 0.02 µg/mL (≈ 3.88 µM) |
| CC1(C)OC2CC(=O)OCC23C1CC(=O)C1(C)C3CC[C@@](C)([C@@H](O[C@@H]2O[C@H](CO)[C@@H](O)[C@H](O)[C@H]2O)c2ccoc2)C12OC2C(=O)O (stereo partly drawn) [Cpd5, limonin 17-O-β-D-glucopyranoside] | severe abnormalities | 19.20 ± 0.07 | 34.17 ± 0.13 | 60.82 ± 0.23 | 15.05 ± 0.07 | 26.78 ± 0.13 | 47.67 ± 0.23 | 22.30 ± 0.07 | 39.69 ± 0.13 | 70.65 ± 0.23 | 22.30 ± 0.07 | 39.69 ± 0.13 | 70.65 ± 0.23 | 18.72 ± 0.06 | 33.32 ± 0.11 | 59.30 ± 0.20 | 23.87 ± 0.06 | 42.48 ± 0.11 | 75.62 ± 0.20 | 27.45 ± 0.07 | Diff% (physiological difference) of electrophoretic α-amylase pattern from the standard enzyme (α-amylase [1]): 100.00%; SI% (similarity index) of electrophoretic α-amylase pattern to the standard enzyme (α-amylase [1]): 0.00%; Diff% (decrease in the quantity of the identified α-glucosidase band) (α-glucosidase [2]): 69.27%; Qty (band quantity) of the α-glucosidase band (α-glucosidase [2]): 5.73; IC50 against ABTS radical [6]: 4.48 ± 0.02 µg/mL (≈ 6.89 µM); IC50 against NO radical [7]: 5.62 ± 0.03 µg/mL (≈ 8.64 µM); IC50 against DPPH radical [8]: 5.07 ± 0.02 µg/mL (≈ 7.79 µM); IC50 against α-amylase (α-amylase [3]): 3.56 ± 0.02 µg/mL (≈ 5.47 µM); TAC ([9]; sample concentration 100 µg/mL): 48.86 ± 0.13 mg gallic acid/g; TAC ([9]; sample concentration 200 µg/mL): 86.96 ± 0.23 mg gallic acid/g; IC50 against α-glucosidase (α-glucosidase [4]): 2.42 ± 0.02 µg/mL (≈ 3.72 µM) |
